Experimental data taken from patent US20230017532A1 (Hoffmann-La Roche Inc., priority 2018, published 2023).
Structures can show the parent of a compound that is named as a salt.

These molecules were tested on Acinetobacter baumannii ATCC17978 (assay: Antimicrobial susceptibility testing: 90% growth inhibitory concentration (IC90) determination, Iso-Sensitest broth, OD 600 nm). Details: 90% growth inhibitory concentration, Acinetobacter baumannii ATCC17978, Iso-Sensitest broth, OD 600 nm over 16 h; read-out: ATCC 17978 IC90.
Type: cell-based
Procedure: Antimicrobial Susceptibility Testing:
90% Growth Inhibitory Concentration (IC90) Determination
The in vitro antimicrobial activity of the compounds was determined according to the following procedure:
The assay used a 10-points Iso-Sensitest broth medium to measure quantitatively the in vitro activity of the compounds against Acinetobacter baumannii ATCC17978 and Acinetobacter baumannii ATCC17961.
Stock compounds in DMSO were serially twofold diluted (e.g. range from 50 to 0.097 μM final concentration) in 384 wells microtiter plates and inoculated with 49 μl the bacterial suspension in Iso-Sensitest medium to have a final cell concentration of ˜5×10^(5) CFU/ml in a final volume/well of 50 ul/well. Microtiter plates were incubated at 35±2° C.
Bacterial cell growth was determined with the measurement of optical density at λ=600 nm each 20 minutes over a time course of 16 h. Growth inhibition was calculated during the logarithmic growth of the bacterial cells with determination of the concentration inhibiting 50% (IC50) and 90% (IC90) of the growth.
Table 1 provides the 90% growth inhibitory concentrations (IC90) in micromoles per liter of the compounds of present invention obtained against the strain Acinetobacter baumannii ATCC17978 and Acinetobacter baumannii ATCC17961.

| IC90 | SMILES |
| --- | --- |
| 130 nM | CCc1cc(Nc2nccn3c(-c4ccc(OCC#N)c(F)c4F)cnc23)ccc1C(=O)NCCOCCN [Example 53, N-(2-(2-aminoethoxy)ethyl)-4-((3-(4-(cyanomethoxy)-2,3-difluorophenyl)imidazo[1,2-a]pyrazin-8-yl)amino)-2-ethylbenzamide] |

Same assay, conditions: Acinetobacter baumannii, ATCC17978, 16 h, 90% growth inhibitory concentration, Acinetobacter baumannii ATCC17978, Iso-Sensitest broth, OD 600 nm over 16 h; read-out: ATCC 17978 IC90

| IC90 | SMILES |
| --- | --- |
| 650 nM | Cc1cc(Nc2nccn3c(-c4ccc(OC(F)F)cc4)cnc23)ccc1C(=O)NCCOCCN1CCC2(CCOCC2)C1 [Example 91, 4-[[3-[4-(difluoromethoxy)phenyl]imidazo [1,2-a]pyrazin-8-yl]amino]-2-methyl-N-[2-[2-(8-oxa-2-azaspiro[4.5]decan-2-yl)ethoxy]ethyl] benzamide] |
| 320 nM | CCc1cc(Nc2nccn3c(-c4ccc(OC)c(F)c4F)cnc23)ccc1C(=O)NCCOCCN(C)CC(=O)O [Example 52, N-(2-(2-(4-((3-(2,3-difluoro-4-methoxyphenyl)imidazo[1,2-a]pyrazin-8-yl)amino)-2-ethylbenzamido)ethoxy)ethyl)-N-methylglycine hydrochloride] |
| 420 nM | CC(=O)NCCOCCNC(=O)c1ccc(Nc2nccn3c(-c4ccc(OC(F)F)cc4)cnc23)cc1C [Example 98] |
| 230 nM | Cc1cc(Nc2nccn3c(-c4ccc(OC(F)F)cc4)cnc23)ccc1C(=O)NCCOCCN [Example 90, N-[2-(2-aminoethoxy)ethyl]-4-[[3-[4-(difluoro-methoxy)phenyl]imidazo[1,2-a]pyrazin-8-yl]amino]-2-methylbenzamide; hydrochloride] |
| 1300 nM | COc1ccc(-c2cnc3c(Nc4ccc(C(=O)NCCOCCNC(=O)CO)c(C)c4)nccn23)cc1 [Example 148, N-[2-[2-[(2-hydroxyacetyl)amino]ethoxy]ethyl]-4-[[3-(4-methoxyphenyl)imidazo[1,2-a]pyrazin-8-yl]amino]-2-methylbenzamide] |
| 560 nM | COc1ccc(-c2cnc3c(Nc4ccc(C(=O)NCCOCCN5CCOC(CN)C5)c(C)c4)nccn23)cc1F (stereo not drawn) [Example 111, N-[2-[2-[2-(aminomethyl)morpholin-4-yl]ethoxy]ethyl]-4-[[3-(3-fluoro-4-methoxyphenyl)imidazo[1,2-a]pyrazin-8-yl]amino]-2-methylbenzamide; hydrochloride] |
| 450 nM | COc1ccc(-c2cnc3c(Nc4ccc(C(=O)NCCOCCNCC(F)F)c(C)c4)nccn23)cc1 [Example 41, N-(2-(2-((2,2-difluoroethyl)amino)ethoxy)ethyl)-4-((3-(4-methoxyphenyl)imidazo[1,2-a]pyrazin-8-yl)amino)-2-methylbenzamide] |
| 67 nM | CCc1cc(Nc2nccn3c(-c4ccc(OCC#N)c(F)c4Cl)cnc23)ccc1C(=O)NCCOCCN(C)C [Example 22, 4-[[3-[2-chloro-4-(cyanomethoxy)-3-fluoro-phenyl]imidazo[1,2-a]pyrazin-8-yl]amino]-N-[2-[2-(dimethylamino)ethoxy]ethyl]-2-ethyl-benzamide] |

Same assay, conditions: Acinetobacter baumannii, ATCC17978, 16 h, read-out: ATCC 17978 IC90

| SMILES | IC90 |
| --- | --- |
| Cc1cc(Nc2nccn3c(-c4ccc(OCC#N)c(F)c4)cnc23)ccc1C(=O)NCCOCCN [Example 68, N-[2-(2-aminoethoxy)ethyl]-4-[[3-[4-(cyanomethoxy)-3-fluoro-phenyl]imidazo[1,2-a]pyrazin-8-yl]amino]-2-methyl-benzamide; formic acid] | 220 nM |
| COc1ccc(-c2cnc3c(Nc4cc(C)c(C(=O)NCCOCCN)c(F)c4)nccn23)c(F)c1F [Example 58, N-(2-(2-Aminoethoxy)ethyl)-4-((3-(2,3-difluoro-4-methoxyphenyl)imidazo[1,2-a]pyrazin-8-yl)amino)-2-fluoro-6-methylbenzamide formate] | 51 nM |
| COc1ccc(-c2cnc3c(Nc4ccc(C(=O)NCCOCCN)c(C)c4)nccn23)c(F)c1 [Example 34, N-(2-(2-aminoethoxy)ethyl)-4-((3-(2-fluoro-4-methoxyphenyl)imidazo[1,2-a]pyrazin-8-yl)amino)-2-methylbenzamide hydrochloride] | 590 nM |
